One assay concerns the target MIP3a (Homo sapiens, UniProt P78556). The assay is described as follows: Migration assay: CD4+ T-cells toward MIP3a (Transwell). The format is cell-based. The note with it: BKT300 at 78% purity, 50 μg/ml. The protocol: (§1) 600 μl of RPMI medium was added to the lower chambers of Transwell® transmigration plates, supplemented with 2 μg/ml of MIP3a, 100 ng/ml of SDF-1 or 10 ng/ml of MCP-1. The tested small molecule was added to the lower chambers at the indicated concentration, except in control samples. The MIP3a, SDF-1 or MCP-1 was incubated with the small molecule for 30 minutes at room temperature before the initiation of the migration assay. Following 30 minutes of incubation 2×10^5 immune cells were added to the upper chambers of the transmigration plates in a total volume of 100 μl. Cells which migrated within 3 hours to the bottom chamber of the Transwell® plates were counted using a FACScalibur™ flow cytometer.
To evaluate migration toward MIP3a, peripheral blood mononuclear cells (PBMCs) were isolated from heparinized venous blood by centrifugation over Ficoll Histopaque® 1077. CD4+ T cells were further isolated with RosetteSep™ human CD4+ T-cell Enrichment cocktail (StemCell Technologies Inc.), according to the manufacturer's instructions.
The 18 compounds uncovered by the screening assay were further tested for their ability, at final concentrations of 10 and 50 μg/ml, to inhibit the migration of human CD4+ T-cells toward MIP3a; and to inhibit the migration of immune cells in response to MCP-1 and SDF-1, using the procedures described in the Materials and Methods section hereinabove.

The next assay deals with MCP-1 (Homo sapiens, UniProt P13500). The assay is described as follows: Migration assay: THP-1 cells towards MCP-1 (Transwell). The format is cell-based. The note with it: BKT300 at 78% purity. As to the method: as §1
To evaluate migration towards MCP-1, JTHP-1 cells were re-suspended in RPMI medium containing 1% fetal calf serum (FCS).

Assay [1] relates to MV4-11 human acute myeloid leukemia cells. The assay is described as follows: Cancer cell viability assay, propidium iodide staining (FACS). The format is cell-based. As to the method: (§2) The cancer cells were incubated in cell medium with 1% fetal calf serum (FCS) at a concentration of 2×10^5 cells/well at a final volume of 250 μl in 96-well plate. The tested small molecule was added to the cells at the indicated concentrations. The cells were incubated for 24 hours and the number of dead and viable cells was then evaluated by fluorescence-activated cell sorting (FACS), using propidium iodide (PI) staining. The IC50 of the small molecule-induced cell death was determined using GraphPad Prism software.
In order to assess the effect of BKT300 on cancer cells viability, the in vitro effect on MV4-11 human acute myeloid leukemia cells was evaluated. The MV4-11 cancer cells were incubated in RPMI cell medium with 1% fetal calf serum (FCS) at a concentration of 2×10^5 cells/well at a final volume of 250 μl in 96-well plate. BKT300 was added to the cells at the indicated concentrations. The cells were incubated for 24 hours and the number of dead and viable cells was then evaluated by fluorescence-activated cell sorting (FACS), using propidium iodide (PI) staining. The IC50 of […] cell death was determined using GraphPad Prism software.

Assay [2] concerns Bjab human lymphoma cells. The assay is described as above. The assay is classed as cell-based. The note with it: BKT300 at 78% purity, 8.5 μg/ml. The protocol:
as §2
(§3) The in vitro effect of BKT300 (at 78% purity) on cancer cell viability was further evaluated using a variety of additional cancer cell lines, using procedures as described hereinabove with respect to MV4-11 cells.

Assay [3] relates to H345 human small cell lung cancer cells. The assay is described as above. The assay is classed as cell-based. The following applies: BKT300 at 78% purity, 8.5 μg/ml. As to the method:
as §2, §3

In assay [4] the test system is H460 human large cell lung cancer cells. The description is as above. The format is cell-based. The following applies: BKT300 at 78% purity, 10 μg/ml. As to the method: as §2, §3
Assay [5] concerns Jurkat human acute lymphoblastic leukemia cells. The assay is described as above. The note with it: BKT300 at 78% purity, 24 hours. The format is cell-based. As to the method:
as §2, §3

The test system of assay [6] is RPMI human multiple myeloma cells. The assay is described as above. The format is cell-based. The note with it: BKT300 at 78% purity, 24 hours. The protocol: as §2, §3
Assay [7] concerns Raji human lymphoma cells. The description is as above. The format is cell-based. The note with it: BKT300 at 78% purity. As to the method: as §2, §3
A further assay has as its system MV4-11 (FLT3-ITD) cells. Briefly: In vivo AML model: NSG mice transplanted with MV4-11 cells. The following applies: BKT300 at 98% purity, 1 mg/Kg intraperitoneally, three consecutive days from day 21; day 25; anti human CD45. As to the method:
The effect of BKT300 (at 98% purity) on the proliferation of AML cells in vivo was examined by treatment of NOD Scid gamma (NSG) mice transplanted with MV4-11 (FLT3-ITD) cells.
The mice were subjected to irradiation with 300 rad and on the following day were transplanted by IV injection with MV4-11 (FLT3-ITD) cells, 10×10^6 cells/mouse. 21 days following transplantation, the treated group was injected intraperitoneally with 1 mg/Kg of BKT300 (98% purity) per injection for three consecutive days. On day 25 following transplantation, mice were sacrificed and the survival of the human AML blasts in the blood, spleen and the bone marrow was evaluated using anti human CD45.

For a further assay, the target named is DAPK2 (Homo sapiens, UniProt Q9UIK4). Briefly: LanthaScreen europium kinase binding assay. The following applies: BKT300 at 78% purity. The protocol:
(§4) In order to further characterize the effect of BKT300 on cell signaling, kinase profiling of BKT300 (at 78% purity) was performed (by the Life Technologies SelectScreen® Biochemical Profiling Lab) using a LanthaScreen® europium kinase binding assay to screen 440 kinases.
(§5) The principle of the LanthaScreen® assay is depicted in FIG. 13. Binding of an Alexa Fluor® conjugate or “tracer” to a kinase is detected by addition of a europium (Eu)-labeled anti-tag antibody. Binding of the tracer and antibody to a kinase results in a high degree of FRET, whereas displacement of the tracer with a kinase inhibitor results in a loss of FRET. The kinase tracers are based on ATP-competitive kinase inhibitors, making them suitable for detection of any compounds that bind to the ATP site. Inhibitors that bind the ATP site include both Type I kinase inhibitors, which bind solely to the ATP site, and Type II inhibitors (e.g., imatinib, sorafenib, BIRB-796), which bind to both the ATP site and a second site often referred to as the allosteric site.

Another assay has as its target DYRK2 (Homo sapiens, UniProt Q92630). The assay is described as follows: LanthaScreen europium kinase binding assay. The note with it: BKT300 at 78% purity. The protocol: as §4, §5
For the next assay, the target named is GRK4 (Homo sapiens, UniProt P32298). Briefly: LanthaScreen europium kinase binding assay. The note with it: BKT300 at 78% purity. The protocol: as §4, §5
The target in the next assay is SRC N1 (Homo sapiens, UniProt P12931). The assay is described as follows: LanthaScreen europium kinase binding assay. The following applies: BKT300 at 78% purity. As to the method: as §4, §5
The next assay addresses STK17A (DRAK1) (Homo sapiens, UniProt Q9UEE5). Briefly: LanthaScreen europium kinase binding assay. The note with it: BKT300 at 78% purity. As to the method: as §4, §5

Converted amounts (≈) assume the structure as drawn.

This is an account of results in patent US12233057B2, “Small molecules for inhibiting chemokine activity and/or cancer cells growth” (AlonBio Ltd., priority 2015, dated 2025).

MCP-1, sequence (P13500 24-99): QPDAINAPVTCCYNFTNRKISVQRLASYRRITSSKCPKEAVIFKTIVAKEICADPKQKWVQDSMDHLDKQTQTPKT
MIP3a, sequence (P78556 27-96): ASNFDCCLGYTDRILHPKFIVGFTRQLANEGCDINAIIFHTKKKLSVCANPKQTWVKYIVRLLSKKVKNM
GRK4, sequence (P32298 whole entry): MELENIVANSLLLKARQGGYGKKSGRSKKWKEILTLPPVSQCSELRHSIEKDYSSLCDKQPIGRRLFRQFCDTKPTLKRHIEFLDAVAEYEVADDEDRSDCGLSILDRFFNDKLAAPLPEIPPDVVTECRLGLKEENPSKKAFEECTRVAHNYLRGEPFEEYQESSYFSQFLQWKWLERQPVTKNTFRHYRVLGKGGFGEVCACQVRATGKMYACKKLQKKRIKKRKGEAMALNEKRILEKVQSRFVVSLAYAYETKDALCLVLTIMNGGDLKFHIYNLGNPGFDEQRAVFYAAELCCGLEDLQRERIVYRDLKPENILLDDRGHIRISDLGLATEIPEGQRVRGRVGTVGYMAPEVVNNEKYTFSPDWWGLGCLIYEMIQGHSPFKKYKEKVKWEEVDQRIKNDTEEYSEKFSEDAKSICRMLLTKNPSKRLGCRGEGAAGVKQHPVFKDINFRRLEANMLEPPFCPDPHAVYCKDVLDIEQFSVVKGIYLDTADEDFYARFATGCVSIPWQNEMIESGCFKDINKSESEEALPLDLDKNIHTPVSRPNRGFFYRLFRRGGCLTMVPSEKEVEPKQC
SRC N1, sequence (P12931 1-542 isoform P12931-2): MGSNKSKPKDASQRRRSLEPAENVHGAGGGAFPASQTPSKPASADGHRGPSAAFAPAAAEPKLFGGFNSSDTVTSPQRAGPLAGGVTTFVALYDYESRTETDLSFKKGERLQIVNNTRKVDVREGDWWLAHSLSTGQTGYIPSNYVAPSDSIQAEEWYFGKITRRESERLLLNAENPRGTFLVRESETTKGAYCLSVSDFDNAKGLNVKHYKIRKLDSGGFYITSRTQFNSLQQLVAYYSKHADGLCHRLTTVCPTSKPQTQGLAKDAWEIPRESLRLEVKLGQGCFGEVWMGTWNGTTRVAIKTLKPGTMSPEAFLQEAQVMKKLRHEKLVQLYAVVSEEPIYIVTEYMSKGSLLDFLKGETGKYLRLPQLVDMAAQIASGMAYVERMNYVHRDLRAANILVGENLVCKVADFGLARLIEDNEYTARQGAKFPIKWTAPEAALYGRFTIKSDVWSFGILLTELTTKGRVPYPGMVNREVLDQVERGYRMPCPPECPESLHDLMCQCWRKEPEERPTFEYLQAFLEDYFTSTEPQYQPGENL
STK17A (DRAK1), sequence (Q9UEE5 whole entry): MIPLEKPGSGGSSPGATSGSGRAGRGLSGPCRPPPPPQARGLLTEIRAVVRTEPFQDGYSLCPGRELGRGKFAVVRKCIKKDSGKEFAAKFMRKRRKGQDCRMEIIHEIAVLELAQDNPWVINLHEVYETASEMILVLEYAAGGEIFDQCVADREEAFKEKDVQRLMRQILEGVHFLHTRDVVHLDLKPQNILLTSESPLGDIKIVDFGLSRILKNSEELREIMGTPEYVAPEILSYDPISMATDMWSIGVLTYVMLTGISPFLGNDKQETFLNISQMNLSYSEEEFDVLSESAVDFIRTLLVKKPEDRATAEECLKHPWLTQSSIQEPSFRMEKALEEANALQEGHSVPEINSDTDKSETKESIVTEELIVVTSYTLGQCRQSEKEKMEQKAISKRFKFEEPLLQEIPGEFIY
DYRK2, sequence (Q92630 whole entry): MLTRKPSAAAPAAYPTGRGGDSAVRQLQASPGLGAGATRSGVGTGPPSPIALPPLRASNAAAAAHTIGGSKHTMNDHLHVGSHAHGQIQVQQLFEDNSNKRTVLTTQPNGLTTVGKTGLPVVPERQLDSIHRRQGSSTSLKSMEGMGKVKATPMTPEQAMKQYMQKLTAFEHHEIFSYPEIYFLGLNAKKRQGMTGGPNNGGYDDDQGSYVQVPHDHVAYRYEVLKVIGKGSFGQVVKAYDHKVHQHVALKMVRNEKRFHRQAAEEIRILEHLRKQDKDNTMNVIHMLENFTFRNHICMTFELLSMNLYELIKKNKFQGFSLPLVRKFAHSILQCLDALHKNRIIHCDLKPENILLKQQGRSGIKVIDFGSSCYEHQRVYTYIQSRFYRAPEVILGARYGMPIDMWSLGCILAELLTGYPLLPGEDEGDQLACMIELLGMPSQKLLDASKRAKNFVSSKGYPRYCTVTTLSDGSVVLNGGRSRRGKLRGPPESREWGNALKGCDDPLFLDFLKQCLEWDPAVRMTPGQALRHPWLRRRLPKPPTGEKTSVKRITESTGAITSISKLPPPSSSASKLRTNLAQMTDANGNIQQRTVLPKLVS
DAPK2, sequence (Q9UIK4 whole entry): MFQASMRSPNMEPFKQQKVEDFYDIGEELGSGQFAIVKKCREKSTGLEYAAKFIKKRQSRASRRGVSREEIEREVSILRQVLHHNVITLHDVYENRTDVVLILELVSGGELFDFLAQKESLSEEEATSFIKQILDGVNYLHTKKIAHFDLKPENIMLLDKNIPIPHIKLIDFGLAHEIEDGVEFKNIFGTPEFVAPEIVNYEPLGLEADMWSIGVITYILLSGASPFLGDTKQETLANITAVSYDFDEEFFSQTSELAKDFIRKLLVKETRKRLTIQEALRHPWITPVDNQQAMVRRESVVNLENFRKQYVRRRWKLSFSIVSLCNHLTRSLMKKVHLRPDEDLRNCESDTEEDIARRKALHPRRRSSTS

As to `CCCCCc1cc2cc(O)cc(Oc3c(O)cc(O)cc3CCCCC)c2c(=O)o1` [BKT300], the “Inhibition of CD4+ T-cell migration towards MIP3a” value at MIP3a is recorded as “completely inhibited”. Further, the “Effect on migration of THP-1 cells towards MCP-1” value on MCP-1 (10 μg/ml) is listed as “no apparent effect”. Moreover, the “Inhibition of migration of THP-1 cells towards MCP-1” value on MCP-1 (50 μg/ml) was “strong inhibition”. Moreover, in assay [1] (BKT300 at 78% purity, 24 hours), the “Concentration at which cell death of MV4-11 cells is induced (as low as; lowest tested)” value is ≤ 2 µg/mL. Moreover, the “Degree of cell death of MV4-11 cells, 98% purity compared with 78% purity” value in assay [1] (BKT300 at 98% purity, 4.25 μg/ml) was “considerably greater degree of cell death”. The “Inducing cell death of MV4-11 cells, 98% purity compared with 78% purity” value in assay [1] (BKT300 at 98% purity, 2.125, 4.25, 8.5 μg/ml) was “significantly more effective”. In assay [2], the “Cell death of Bjab cells” value is given as “about 30%”. For the same compound, the “Cell death of H345 cells” value in [3] is on record as “over 90%”. Besides, the “Cell death of H460 cells” value in assay [4] is “about 80%”. Further, the “Concentration at which cell death of Jurkat cells is induced (as low as; lowest tested)” value in assay [5] was ≤ 2 µg/mL. In addition, in [5] (Homo sapiens, Jurkat, read-out: IC50 for induced death of Jurkat cells), the IC50 came to 3.5 µg/mL (≈ 8.21 µM). Further, the “Concentration at which cell death of RPMI cells is induced (as low as; lowest tested)” value in assay [6] is ≤ 2 µg/mL. The “Cell death of Raji cells” value is recorded as “slight cell death” in assay [7] (4.25 μg/ml) and “about 30%” in assay [7] (8.5 μg/ml). In the assay with MV4-11 (FLT3-ITD) cells, the “Number and percentage of AML cells in the bone marrow” value is “dramatically reduced”. The “% Inhibition” value is on record as 65% at DAPK2; 62% at DYRK2; 63% at GRK4; 41% at SRC N1; 48% at STK17A (DRAK1).
